Assay results from PubChem BioAssay AID330 (DTP/NCI, 2004).
Several values for one entry are separate records, joined by “and”; a condition that tells them apart may be missing. Equal entries are not always repeated. Inconclusive results and toxic doses are left out. Rule for the calls: active = survival T/C of 150% or more; inactive = T/C below 125% in these data.

System: P388 leukemia ip, CD2F1 mice, survival T/C
Assay: NCI In Vivo Anticancer Drug Screen. Data for tumor model P388 Leukemia (intraperitoneal) in CD2F1 (CDF1) mice
Details: endpoint: median survival time, higher = longer survival
Method in brief: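 Mice carrying the transplanted tumor received test compound or vehicle. Survival was recorded in each group, and the value is the treated-group measurement divided by that of the vehicle-treated control group.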

[1] = dose: 100.0 mg/kg/injection, schedule: Q01DX001 (ip), vehicle: saline
[2] = dose: 200.0 mg/kg/injection, schedule: Q01DX001 (ip), vehicle: saline
[3] = dose: 400.0 mg/kg/injection, schedule: Q01DX001 (ip), vehicle: saline
[4] = dose: 6.25 mg/kg/injection, schedule: Q01DX009 (ip), vehicle: saline with Tween-80
[5] = dose: 50.0 mg/kg/injection, schedule: Q01DX009 (ip), vehicle: saline
[6] = dose: 100.0 mg/kg/injection, schedule: Q01DX009 (ip), vehicle: saline
[7] = dose: 200.0 mg/kg/injection, schedule: Q01DX009 (ip), vehicle: saline
[8] = dose: 50.0 mg/kg/injection, schedule: Q01DX005 (ip), vehicle: Klucel (hydroxypropylcellulose) (HPC)
[9] = dose: 100.0 mg/kg/injection, schedule: Q01DX005 (ip), vehicle: Klucel (hydroxypropylcellulose) (HPC)
[10] = dose: 200.0 mg/kg/injection, schedule: Q01DX005 (ip), vehicle: Klucel (hydroxypropylcellulose) (HPC)
[11] = dose: 6.25 mg/kg/injection, schedule: Q01DX009 (ip), vehicle: saline
[12] = dose: 12.5 mg/kg/injection, schedule: Q01DX009 (ip), vehicle: saline
[13] = dose: 25.0 mg/kg/injection, schedule: Q01DX009 (ip), vehicle: saline
[14] = dose: 50.0 mg/kg/injection, schedule: Q01DX005 (ip), vehicle: saline with Tween-80
[15] = dose: 100.0 mg/kg/injection, schedule: Q01DX005 (ip), vehicle: saline with Tween-80
[16] = dose: 200.0 mg/kg/injection, schedule: Q01DX005 (ip), vehicle: saline with Tween-80

Measured: T/C

O=C1CC2(CC(=O)NC2=O)C(=O)N1
inactive: [1] 100 % of control | [2] 97 % of control | [3] 92 % of control

C=CC1=C(C)C2=NC1=CC1=NC(=CC3=C(C)C4=C(O)C(C(=O)O)C(=C5NC(=C2)C(C)C5CCC(=O)O)C4=N3)C(CC)=C1C (configuration not stated)
inactive: dose: 50.0 mg/kg/injection, schedule: Q01DX005 (ip), vehicle: suspension in saline 98 % of control | dose: 100.0 mg/kg/injection, schedule: Q01DX005 (ip), vehicle: suspension in saline 103 % of control | dose: 200.0 mg/kg/injection, schedule: Q01DX005 (ip), vehicle: suspension in saline 98 % of control

Nc1ncnc2nc(CO)[nH]c12
inactive: dose: 0.78 mg/kg/injection, schedule: Q01DX009 (ip), vehicle: saline with Tween-80 100 % of control | dose: 1.56 mg/kg/injection, schedule: Q01DX009 (ip), vehicle: saline with Tween-80 97 % of control | dose: 3.13 mg/kg/injection, schedule: Q01DX009 (ip), vehicle: saline with Tween-80 93 % of control | [4] 91 % of control

Cn1cnc2cc(NCCCc3ccccc3)c([N+](=O)[O-])cc2c1=O
inactive: dose: 100.0 mg/kg/injection, schedule: Q04DX003 (ip), vehicle: saline with Tween-80 103 % of control | dose: 200.0 mg/kg/injection, schedule: Q04DX003 (ip), vehicle: saline with Tween-80 101 % of control | dose: 400.0 mg/kg/injection, schedule: Q04DX003 (ip), vehicle: saline with Tween-80 105 % of control

COc1c2c(cc3c1OCO3)[C@]13C=C[C@H](OC)C[C@H]1N(C2)CC3O (some centres not stated)
inactive: dose: 0.63 mg/kg/injection, schedule: Q01DX009 (ip), vehicle: saline with Tween-80 90 % of control | dose: 1.25 mg/kg/injection, schedule: Q01DX001 (ip), vehicle: saline 100 % of control | dose: 1.25 mg/kg/injection, schedule: Q01DX009 (ip), vehicle: saline with Tween-80 86 % of control | dose: 2.5 mg/kg/injection, schedule: Q01DX001 (ip), vehicle: saline 109 % of control | dose: 5.0 mg/kg/injection, schedule: Q01DX001 (ip), vehicle: saline with Tween-80 90 % of control

COc1ccccc1N1C(=O)/C(=N\OC(=O)c2c(-c3c(Cl)cccc3Cl)noc2C)SC1=S
inactive: [5] 104 % of control | [6] 90 % of control | [7] 89 % of control

O=C1c2ccccc2C(=O)N1/N=C/c1ccc(O)cc1
inactive: [8] 101 % of control | [9] 99 % of control | [10] 100 % of control

CC1=Nc2cc(Cl)c(Cl)cc2N(C)/C1=C/C1=C(Cl)C(=O)c2ccccc2C1=O
inactive: [4] 114 % of control | dose: 12.5 mg/kg/injection, schedule: Q01DX009 (ip), vehicle: saline with Tween-80 95 % of control | dose: 25.0 mg/kg/injection, schedule: Q01DX009 (ip), vehicle: saline with Tween-80 107 % of control | dose: 50.0 mg/kg/injection, schedule: Q01DX009 (ip), vehicle: saline with Tween-80 105 % of control | dose: 100.0 mg/kg/injection, schedule: Q01DX009 (ip), vehicle: saline with Tween-80 104 % of control

O=C(O)CC(/C=C\C(=O)C(=O)O)=C\O
inactive: dose: 1.56 mg/kg/injection, schedule: Q01DX009 (ip), vehicle: saline 100 % of control | dose: 3.12 mg/kg/injection, schedule: Q01DX009 (ip), vehicle: saline 101 % of control | [11] 100 % of control | [12] 100 % of control and 114 % of control | [13] 100 % of control and 109 % of control | [5] 106 % of control | [6] 112 % of control | [7] 86 % of control

O=C1C=CC2=C3c4cc(O)c(O)cc4CC3(O)COC2=C1O (configuration not stated)
inactive: [11] 102 % of control | [12] 108 % of control | [13] 118 % of control | [5] 108 % of control

O=C(Nc1ccc2c(c1)oc(=O)c1ccccc12)C(Cl)Cl
inactive: [14] 96 % of control | [15] 98 % of control | [16] 89 % of control

CC(=O)c1cnn(C(N)=O)c1C
inactive: dose: 15.0 mg/kg/injection, schedule: Q01DX005 (ip), vehicle: Klucel (hydroxypropylcellulose) (HPC) 95 % of control and 96 % of control | dose: 30.0 mg/kg/injection, schedule: Q01DX005 (ip), vehicle: Klucel (hydroxypropylcellulose) (HPC) 100 % of control and 102 % of control | dose: 60.0 mg/kg/injection, schedule: Q01DX005 (ip), vehicle: Klucel (hydroxypropylcellulose) (HPC) 101 % of control and 97 % of control | dose: 120.0 mg/kg/injection, schedule: Q01DX005 (ip), vehicle: Klucel (hydroxypropylcellulose) (HPC) 105 % of control and 96 % of control and 98 % of control | dose: 240.0 mg/kg/injection, schedule: Q01DX005 (ip), vehicle: Klucel (hydroxypropylcellulose) (HPC) 107 % of control

O=C(Nc1cc(Cl)ccc1C(=O)O)c1cccc(C[n+]2ccccc2)c1
inactive: dose: 12.5 mg/kg/injection, schedule: Q01DX005 (ip), vehicle: saline with Tween-80 91 % of control | dose: 25.0 mg/kg/injection, schedule: Q01DX005 (ip), vehicle: saline with Tween-80 102 % of control | [14] 102 % of control

CC(=O)Nc1ccc(-c2csc(Nc3ccnc4cc(Cl)ccc34)n2)cc1
inactive: [14] 93 % of control and 95 % of control | [15] 92 % of control | [16] 90 % of control and 92 % of control

COP(=O)(O)NS(=O)(=O)c1ccccc1
inactive: [1] 101 % of control | [2] 101 % of control | [3] 102 % of control

O=C(N/C(=C\c1cccc([N+](=O)[O-])c1)c1nc2ccccc2s1)c1ccccc1
inactive: dose: 60.0 mg/kg/injection, schedule: Q01DX005 (ip), vehicle: saline with Tween-80 107 % of control | dose: 120.0 mg/kg/injection, schedule: Q01DX005 (ip), vehicle: saline with Tween-80 106 % of control | dose: 240.0 mg/kg/injection, schedule: Q01DX005 (ip), vehicle: saline with Tween-80 110 % of control

Cc1cc2cc3c4c(nn5nnnc5c4c2o1)-c1ccccc1CC3
inactive: [8] 92 % of control | [9] 86 % of control | [10] 95 % of control

O=C(Nc1cccc2c1C(=O)c1cccc(Nc3cccc4c3C(=O)c3cccc(NC(=O)c5ccccc5)c3C4=O)c1C2=O)c1ccccc1
inactive: [14] 101 % of control and 94 % of control | [15] 88 % of control and 92 % of control | [16] 93 % of control

CC1(C)CC2(OC2c2ccccc2)C(=O)c2ccccc21 (configuration not stated)
inactive: dose: 25.0 mg/kg/injection, schedule: Q01DX009 (ip), vehicle: Klucel (hydroxypropylcellulose) (HPC) 89 % of control | dose: 50.0 mg/kg/injection, schedule: Q01DX009 (ip), vehicle: Klucel (hydroxypropylcellulose) (HPC) 89 % of control | dose: 100.0 mg/kg/injection, schedule: Q01DX009 (ip), vehicle: Klucel (hydroxypropylcellulose) (HPC) 87 % of control | dose: 400.0 mg/kg/injection, schedule: Q01DX009 (ip), vehicle: Klucel (hydroxypropylcellulose) (HPC) 88 % of control

NCCNCC[OH2+].NCCNCC[OH2+].O=[N+]([O-])[O-].[Cu+2]
inactive: dose: 3.12 mg/kg/injection, schedule: Q01DX009 (ip), vehicle: Klucel (hydroxypropylcellulose) (HPC) 98 % of control | dose: 6.25 mg/kg/injection, schedule: Q01DX009 (ip), vehicle: Klucel (hydroxypropylcellulose) (HPC) 111 % of control | dose: 6.25 mg/kg/injection, schedule: Q04DX003 (ip), vehicle: saline 97 % of control | dose: 12.5 mg/kg/injection, schedule: Q01DX009 (ip), vehicle: Klucel (hydroxypropylcellulose) (HPC) 93 % of control | dose: 12.5 mg/kg/injection, schedule: Q04DX003 (ip), vehicle: saline 100 % of control | dose: 25.0 mg/kg/injection, schedule: Q04DX003 (ip), vehicle: saline 86 % of control
